Measured values from ChEMBL document CHEMBL5241120, “Insights into the medicinal chemistry of heterocycles integrated with a pyrazolo[1,5-a]pyrimidine scaffold” (RSC Med Chem, 2022).
Converted amounts (≈) assume the structure as drawn.

Tests used:
HepG2 = assay: Cytotoxicity against human HepG2 cells by MTT assay; type: functional, cell-based
MCF7 = assay: Cytotoxicity against human MCF7 cells by MTT assay; type: functional, cell-based
HCT-116 = assay: Cytotoxicity against human HCT-116 cells by MTT assay; type: functional, cell-based
[1] = Inhibition of soybean 15-LOX; design: species or system Glycine max
Bacillus subtilis [2] = assay: Antibacterial activity against Bacillus subtilis; type: functional
Staphylococcus aureus [3] = assay: Antibacterial activity against Staphylococcus aureus; type: functional
Escherichia coli [4] = assay: Antibacterial activity against Escherichia coli; type: functional
Pseudomonas aeruginosa [5] = assay: Antibacterial activity against Pseudomonas aeruginosa; type: functional
Aspergillus niger [6] = assay: Antifungal activity against Aspergillus niger assessed as zone of inhibition; type: functional
Bacillus subtilis [7] = assay: Antibacterial activity against Bacillus subtilis assessed as zone of inhibition; type: functional
Candida albicans = assay: Antifungal activity against Candida albicans assessed as zone of inhibition; type: functional
Escherichia coli [8] = assay: Antibacterial activity against Escherichia coli assessed as zone of inhibition; type: functional
Aspergillus niger [9] = assay: Antifungal activity against Aspergillus niger by dry weight method; type: functional
Aspergillus flavus = assay: Antifungal activity against Aspergillus flavus by dry weight method; type: functional; design: unit not given beside the values
Fusarium verticillioides = assay: Antifungal activity against Fusarium moniliforme by dry weight method; type: functional
Staphylococcus aureus [10] = assay: Antibacterial activity against Staphylococcus aureus assessed as zone of inhibition; type: functional
Pseudomonas aeruginosa [11] = assay: Antibacterial activity against Pseudomonas aeruginosa assessed as zone of inhibition; type: functional
Salmonella enterica = assay: Antibacterial activity against Salmonella enterica assessed as zone of inhibition; type: functional
Rattus norvegicus = assay: Analgesic activity in Sprague-Dawley rat at 15 mg/kg after 2 hrs by hot plate test; type: functional
[12] = biological target: T1, Prostaglandin G/H synthase 1 (Ovis aries, UniProt P05979); assay: Inhibition of ovine COX-1
T1 sequence (P05979 whole entry): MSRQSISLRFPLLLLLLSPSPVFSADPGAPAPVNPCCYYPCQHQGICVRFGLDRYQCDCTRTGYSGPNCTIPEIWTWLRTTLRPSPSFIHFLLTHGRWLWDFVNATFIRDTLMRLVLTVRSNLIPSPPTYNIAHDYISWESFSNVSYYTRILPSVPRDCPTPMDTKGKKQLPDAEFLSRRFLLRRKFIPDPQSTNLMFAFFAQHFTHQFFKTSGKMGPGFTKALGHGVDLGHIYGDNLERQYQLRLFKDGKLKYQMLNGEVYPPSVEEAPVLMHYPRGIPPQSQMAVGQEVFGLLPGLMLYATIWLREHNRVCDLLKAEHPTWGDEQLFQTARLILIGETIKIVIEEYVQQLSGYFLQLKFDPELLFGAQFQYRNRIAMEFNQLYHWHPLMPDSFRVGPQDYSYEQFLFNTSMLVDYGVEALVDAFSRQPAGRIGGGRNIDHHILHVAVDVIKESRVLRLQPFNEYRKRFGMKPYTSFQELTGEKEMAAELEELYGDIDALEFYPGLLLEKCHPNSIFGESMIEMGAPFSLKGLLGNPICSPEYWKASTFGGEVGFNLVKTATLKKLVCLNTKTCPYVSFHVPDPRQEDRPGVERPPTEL

SiHa = assay: Cytotoxicity against human SiHa cells by MTT assay; type: functional, cell-based
HeLa = assay: Cytotoxicity against human HeLa cells by MTT assay; type: functional, cell-based

Nc1nc2c(/N=N/c3ccc(C(F)(F)F)cc3)c(N)nn2c(N)c1/N=N/c1ccc(S(=O)(=O)Nc2ncccn2)cc1
IC50 (HepG2): 3.4 µg/mL
IC50 (MCF7): 1.4 µg/mL (≈ 2.34 µM)
IC50 (HCT-116): 2.4 µg/mL (≈ 4.02 µM)

CC(Cc1ccc(O)c(O)c1)C(C)Cc1ccc(O)c(O)c1 (stereo unspecified) [NORDIHYDROGUAIARETIC ACID]
IC50 [1]: 8.5 µM

COc1ccc(Nc2nn3c(-c4ccccc4)ccnc3c2C(N)=O)cc1
MIC (Bacillus subtilis [2]): 3.9 µg/mL (≈ 10.9 µM)
MIC (Staphylococcus aureus [3]): 7.81 µg/mL (≈ 21.7 µM)
MIC (Escherichia coli [4]): 15.6 µg/mL (≈ 43.5 µM)
MIC (Pseudomonas aeruginosa [5]): 7.81 µg/mL (≈ 21.7 µM)

C[C@@H]1[C@H](O)[C@@H](C)/C=C/C=C/C=C/C=C/C=C/C=C/C=C/[C@H](O[C@@H]2O[C@H](C)[C@@H](O)[C@H](N)[C@@H]2O)C[C@@H]2O[C@](O)(C[C@@H](O)C[C@@H](O)[C@H](O)CC[C@@H](O)C[C@@H](O)CC(=O)O[C@H]1C)C[C@H](O)[C@H]2C(=O)O [AMPHOTERICIN B]
inhibition zone (IZ) (Aspergillus niger [6]): 23.3 mm

Cc1ccc(-c2ccnc3c(C(N)=O)c(Nc4ccccc4)nn23)cc1
inhibition zone (IZ) (Bacillus subtilis [7]): 9 mm
MIC (Bacillus subtilis [2]): 3.9 µg/mL (≈ 11.4 µM)
MIC (Staphylococcus aureus [3]): 7.81 µg/mL (≈ 22.7 µM)
MIC (Escherichia coli [4]): 15.6 µg/mL (≈ 45.5 µM)
MIC (Pseudomonas aeruginosa [5]): 7.81 µg/mL (≈ 22.7 µM)

COC1=CC(=O)C[C@@H](C)[C@]12Oc1c(Cl)c(OC)cc(OC)c1C2=O [GRISEOFULVIN]
inhibition zone (IZ) (Candida albicans): 16.8 mm

CSc1nn2c(C)cc(C)nc2c1-c1nc2ccccc2n1C
inhibition zone (IZ) (Escherichia coli [8]): 9 mm
Activity (Aspergillus niger [9]): 0.27
Activity (Aspergillus flavus): 0.3
Activity (Fusarium verticillioides): 0.11

CN(C)[C@@H]1C(O)=C(C(N)=O)C(=O)[C@@]2(O)C(O)=C3C(=O)c4c(O)cccc4[C@@](C)(O)[C@H]3C[C@@H]12 [TETRACYCLINE]
inhibition zone (IZ) (Staphylococcus aureus [10]): 25 mm
inhibition zone (IZ) (Escherichia coli [8]): 23 mm
inhibition zone (IZ) (Bacillus subtilis [7]): 25 mm
inhibition zone (IZ) (Pseudomonas aeruginosa [11]): 20 mm
MIC (Bacillus subtilis [2]): 31.2 µg/mL (≈ 70.3 µM)
MIC (Staphylococcus aureus [3]): 62.5 µg/mL (≈ 141 µM)
MIC (Escherichia coli [4]): 15.6 µg/mL (≈ 35.1 µM)
MIC (Pseudomonas aeruginosa [5]): 62.5 µg/mL (≈ 141 µM)

Cc1ccc(-c2nc3c(/N=N/c4cccc(C(F)(F)F)c4)c(N)nn3c(O)c2C#N)cc1
IC50 (HepG2): 8.47 µg/mL
IC50 (MCF7): 11.2 µg/mL (≈ 25.6 µM)
IC50 (HCT-116): 12 µg/mL (≈ 27.4 µM)

CSc1nn2c(-c3cccs3)c(C#N)c(N)nc2c1-c1nc2ccccc2n1C
Activity (Aspergillus niger [9]): 0.56
Activity (Aspergillus flavus): 0.38
Activity (Fusarium verticillioides): 0.28

Cc1cc(NN2C(=O)CCC2=O)n2ncc(C#N)c2n1
MIC (Bacillus subtilis [2]): 10 µg/mL (≈ 37 µM)
MIC (Escherichia coli [4]): 10 µg/mL (≈ 37 µM)

COc1cccc2c1C(=O)c1c(O)c3c(c(O)c1C2=O)C[C@@](O)(C(=O)CO)C[C@@H]3O[C@H]1C[C@H](N)[C@H](O)[C@H](C)O1 [DOXORUBICIN]
IC50 (HepG2): 80.9 µM
IC50 (HCT-116): 1.6 µg/mL (≈ 2.94 µM)

COc1ccc(Nc2nn3c(N)c(C#N)c(-c4cccc(Cl)c4)nc3c2C(=O)Nc2ccccc2)cc1
inhibition zone (IZ) (Aspergillus niger [6]): 15 mm

COc1ccc(Nc2nn3c(N)c(C#N)c(-c4ccc(C)cc4)nc3c2C(=O)Nc2ccc(Cl)cc2)cc1
inhibition zone (IZ) (Candida albicans): 18 mm
inhibition zone (IZ) (Aspergillus niger [6]): 15 mm

O=C(Nc1ccccc1)c1cnn2c(-c3ccncc3)ccnc12
inhibition zone (IZ) (Escherichia coli [8]): 12 mm
inhibition zone (IZ) (Salmonella enterica): 23 mm

N#Cc1c(-c2ccccc2)nc2c(/N=N/c3cccc(C(F)(F)F)c3)c(N)nn2c1O
IC50 (HepG2): 2.41 µg/mL
IC50 (MCF7): 2.09 µg/mL (≈ 4.94 µM)
IC50 (HCT-116): 2.39 µg/mL (≈ 5.65 µM)

O=C(O)Cc1ccccc1Nc1c(Cl)cccc1Cl [DICLOFENAC]
Activity (Rattus norvegicus): 84%

CC(=O)O[C@H]1C(=O)[C@@]2(C)[C@H]([C@H](OC(=O)c3ccccc3)[C@]3(O)C[C@H](OC(=O)[C@H](O)[C@@H](NC(=O)c4ccccc4)c4ccccc4)C(C)=C1C3(C)C)[C@]1(OC(C)=O)CO[C@@H]1C[C@@H]2O [PACLITAXEL]
IC50 (HepG2): 4.3 µg/mL
IC50 (MCF7): 4.7 µg/mL (≈ 5.5 µM)
IC50 (HCT-116): 2.9 µg/mL (≈ 3.4 µM)

CC1=CC(c2ccccc2)n2nc(-c3ccc(C)cc3)cc2N1 (stereo unspecified)
IC50 (HepG2): 10.3 µg/mL
IC50 (MCF7): 23.8 µg/mL (≈ 79 µM)
IC50 (HCT-116): 22.5 µg/mL (≈ 74.7 µM)

CN[C@@H]1[C@H](O[C@H]2[C@H](O[C@H]3[C@H](O)[C@@H](O)[C@H](N=C(N)N)[C@@H](O)[C@@H]3N=C(N)N)O[C@@H](C)[C@]2(O)C=O)O[C@@H](CO)[C@H](O)[C@H]1O [STREPTOMYCIN]
inhibition zone (IZ) (Escherichia coli [8]): 16.4 mm
inhibition zone (IZ) (Bacillus subtilis [7]): 16.2 mm
MIC (Bacillus subtilis [2]): 5 µg/mL (≈ 8.6 µM)
MIC (Escherichia coli [4]): 5 µg/mL (≈ 8.6 µM)

COc1ccnc(Nc2n[nH]c(N)c2C#N)c1
IC50 [12]: 9.1 µM
IC50 [1]: 14.2 µM

O=C(c1cc(-c2ccc([N+](=O)[O-])cc2)n2nc(-c3ccccc3)cc2n1)N1CCN(C(=O)c2ccccc2NCc2cccc3c2OCO3)CC1
IC50 (SiHa): 1.99 µM
IC50 (HeLa): 1.99 µM

CSc1nn2c(-c3ccccc3)c(C#N)c(N)nc2c1-c1nc2ccccc2n1C
inhibition zone (IZ) (Staphylococcus aureus [10]): 9 mm
Activity (Aspergillus niger [9]): 0.51
Activity (Aspergillus flavus): 0.36
Activity (Fusarium verticillioides): 0.19

COc1cc(-c2cc(C(=O)N3CCN(C(=O)c4ccccc4NCc4cccs4)CC3)nc3cc(-c4ccccc4)nn23)cc(OC)c1OC
IC50 (SiHa): 1.56 µM
IC50 (HeLa): 1.46 µM

Cc1nc2c(c(C)nc3c(C#N)cnn32)c(Cl)c1CCCl
inhibition zone (IZ) (Escherichia coli [8]): 15.3 mm
inhibition zone (IZ) (Bacillus subtilis [7]): 15.1 mm
inhibition zone (IZ) (Aspergillus niger [6]): 17.2 mm

CC1=CC(c2ccccc2)n2nc(C)cc2N1 (stereo unspecified)
IC50 (HepG2): 24.8 µg/mL
IC50 (MCF7): 23.5 µg/mL (≈ 104 µM)
IC50 (HCT-116): 22.6 µg/mL (≈ 100 µM)

COc1ccc(Nc2nn3c(N)c(C#N)c(-c4cccc(C)c4)nc3c2C(=O)Nc2ccc(Cl)cc2)cc1
inhibition zone (IZ) (Aspergillus niger [6]): 15 mm

CSc1nn2c(-c3ccccc3)c(C#N)c(=O)[nH]c2c1-c1nc2ccccc2n1C
Activity (Aspergillus niger [9]): 0.43
Activity (Aspergillus flavus): 0.33
Activity (Fusarium verticillioides): 0.16

C[C@@H]1C[C@@H]([C@H](O)CC2CC(=O)NC(=O)C2)C(=O)[C@@H](C)C1 [CYCLOHEXIMIDE]
inhibition zone (IZ) (Candida albicans): 32 mm

COc1ccnc(Nc2nn3c(SC)c(C#N)c(N)nc3c2C#N)c1
IC50 [12]: 10.2 µM
IC50 [1]: 27.3 µM

CC1=Nc2cc(C)nn2C(=O)/C1=N\Nc1ccc(C)cc1
Activity (Rattus norvegicus): 96.7%

Cc1ccc(-c2nc3c(/N=N/c4cccc(C(F)(F)F)c4)c(N)nn3c(N)c2C#N)cc1
IC50 (HepG2): 0.64 µg/mL
IC50 (MCF7): 2.79 µg/mL (≈ 6.39 µM)
IC50 (HCT-116): 1.89 µg/mL (≈ 4.33 µM)

CC1=CC(c2ccccc2)n2nc(-c3ccccc3)cc2N1 (stereo unspecified)
IC50 (HepG2): 0.64 µg/mL
IC50 (MCF7): 2.79 µg/mL (≈ 9.71 µM)
IC50 (HCT-116): 1.89 µg/mL (≈ 6.58 µM)

CC(=O)c1cnc2c(C(=O)Nc3ccccc3)cnn2c1C
inhibition zone (IZ) (Salmonella enterica): 16 mm

COc1ccc(Nc2nn3c(N)c(C#N)c(-c4cccc(Cl)c4)nc3c2C(=O)Nc2ccc(Cl)cc2)cc1
inhibition zone (IZ) (Aspergillus niger [6]): 15 mm

COc1cc(-c2cc(C(=O)N3CCN(C(=O)c4ccccc4NCc4ccco4)CC3)nc3cc(-c4ccccc4)nn23)cc(OC)c1OC
IC50 (SiHa): 1.61 µM
IC50 (HeLa): 1.54 µM

O=C(Nc1ccccc1)c1cnn2c(-c3ccccn3)ccnc12
inhibition zone (IZ) (Salmonella enterica): 11 mm

Cc1cc(-n2ncc(C#N)c2N)n2ncc(C#N)c2n1
inhibition zone (IZ) (Escherichia coli [8]): 14.2 mm
inhibition zone (IZ) (Bacillus subtilis [7]): 16.1 mm
inhibition zone (IZ) (Candida albicans): 17.1 mm

COc1ccc(Nc2nn3c(-c4ccc(C)cc4)ccnc3c2C(N)=O)cc1
MIC (Bacillus subtilis [2]): 3.9 µg/mL (≈ 10.4 µM)
MIC (Staphylococcus aureus [3]): 7.81 µg/mL (≈ 20.9 µM)
MIC (Escherichia coli [4]): 15.6 µg/mL (≈ 41.8 µM)
MIC (Pseudomonas aeruginosa [5]): 7.81 µg/mL (≈ 20.9 µM)

CSc1nn2c(C)cc(=O)[nH]c2c1-c1nc2ccccc2n1C
Activity (Aspergillus niger [9]): 0.26
Activity (Aspergillus flavus): 0.16
Activity (Fusarium verticillioides): 0.12

O=C(Nc1ccccc1)c1cnn2ccc(-c3ccccn3)nc12
inhibition zone (IZ) (Salmonella enterica): 20 mm

Cc1ccc(N/N=C2\C(=O)n3nc(C)cc3N=C2C(F)(F)F)cc1
Activity (Rattus norvegicus): 121.1%

COc1ccc(Nc2nn3c(N)c(C#N)c(-c4cc(OC)ccc4OC)nc3c2C(=O)Nc2ccccc2)cc1
inhibition zone (IZ) (Escherichia coli [8]): 16 mm
inhibition zone (IZ) (Bacillus subtilis [7]): 20 mm
inhibition zone (IZ) (Aspergillus niger [6]): 15 mm
